The results in this text go back to paper PMC11513893, “Discovery of Oral Degraders of the ROS1 Fusion Protein with Potent Activity against Secondary Resistance Mutations” (Journal of Medicinal Chemistry, 2024).

Series [1] concerns CAMK2D. The series is described as follows: Degradation assay. The series is classed as cell-based. Particulars: average of duplicate measurements. The procedure:
(§1) However, the degradation selectivity of 9o often contrasts with its kinase binding selectivity as determined in cells treated with 9o where the kinase level was measurable by Western blot analysis. […] For example, FLT3, CHEK2, and FES, all with kinase binding at <10 nM, were only moderately or minimally degraded, if at all (Table 9).

For a further series, the target named is FES (Homo sapiens, UniProt P07332). The series is described as follows: Degradation assay. The series is classed as cell-based. The conditions noted are these: average of duplicate measurements. On the procedure:
as §1

The target in another series is CHEK2 (Homo sapiens, UniProt O96017). The series is described as follows: Kinase assay. The conditions noted are these: average of duplicate measurements. The series is classed as biochemical.
Sequence of CHEK2 (O96017 whole entry, species assumed): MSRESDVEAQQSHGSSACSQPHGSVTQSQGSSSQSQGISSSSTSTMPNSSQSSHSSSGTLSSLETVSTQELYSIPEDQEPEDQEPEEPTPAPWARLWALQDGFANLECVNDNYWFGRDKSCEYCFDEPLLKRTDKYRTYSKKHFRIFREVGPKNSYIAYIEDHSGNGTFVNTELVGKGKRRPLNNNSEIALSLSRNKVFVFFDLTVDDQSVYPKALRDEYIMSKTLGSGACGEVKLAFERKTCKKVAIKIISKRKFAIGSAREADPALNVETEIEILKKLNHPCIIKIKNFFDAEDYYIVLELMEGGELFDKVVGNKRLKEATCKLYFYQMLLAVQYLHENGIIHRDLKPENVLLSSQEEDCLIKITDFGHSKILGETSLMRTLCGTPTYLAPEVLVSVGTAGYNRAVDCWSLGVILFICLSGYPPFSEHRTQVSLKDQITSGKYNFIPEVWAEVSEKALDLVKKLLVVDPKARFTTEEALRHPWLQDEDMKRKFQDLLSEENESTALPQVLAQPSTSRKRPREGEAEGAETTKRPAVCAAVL
In a further series the target is RET (Homo sapiens, UniProt P07949). The series is described as follows: Kinase assay. It counts as biochemical. The conditions noted are these: average of duplicate measurements.
Sequence of RET (P07949 29-1114, species assumed): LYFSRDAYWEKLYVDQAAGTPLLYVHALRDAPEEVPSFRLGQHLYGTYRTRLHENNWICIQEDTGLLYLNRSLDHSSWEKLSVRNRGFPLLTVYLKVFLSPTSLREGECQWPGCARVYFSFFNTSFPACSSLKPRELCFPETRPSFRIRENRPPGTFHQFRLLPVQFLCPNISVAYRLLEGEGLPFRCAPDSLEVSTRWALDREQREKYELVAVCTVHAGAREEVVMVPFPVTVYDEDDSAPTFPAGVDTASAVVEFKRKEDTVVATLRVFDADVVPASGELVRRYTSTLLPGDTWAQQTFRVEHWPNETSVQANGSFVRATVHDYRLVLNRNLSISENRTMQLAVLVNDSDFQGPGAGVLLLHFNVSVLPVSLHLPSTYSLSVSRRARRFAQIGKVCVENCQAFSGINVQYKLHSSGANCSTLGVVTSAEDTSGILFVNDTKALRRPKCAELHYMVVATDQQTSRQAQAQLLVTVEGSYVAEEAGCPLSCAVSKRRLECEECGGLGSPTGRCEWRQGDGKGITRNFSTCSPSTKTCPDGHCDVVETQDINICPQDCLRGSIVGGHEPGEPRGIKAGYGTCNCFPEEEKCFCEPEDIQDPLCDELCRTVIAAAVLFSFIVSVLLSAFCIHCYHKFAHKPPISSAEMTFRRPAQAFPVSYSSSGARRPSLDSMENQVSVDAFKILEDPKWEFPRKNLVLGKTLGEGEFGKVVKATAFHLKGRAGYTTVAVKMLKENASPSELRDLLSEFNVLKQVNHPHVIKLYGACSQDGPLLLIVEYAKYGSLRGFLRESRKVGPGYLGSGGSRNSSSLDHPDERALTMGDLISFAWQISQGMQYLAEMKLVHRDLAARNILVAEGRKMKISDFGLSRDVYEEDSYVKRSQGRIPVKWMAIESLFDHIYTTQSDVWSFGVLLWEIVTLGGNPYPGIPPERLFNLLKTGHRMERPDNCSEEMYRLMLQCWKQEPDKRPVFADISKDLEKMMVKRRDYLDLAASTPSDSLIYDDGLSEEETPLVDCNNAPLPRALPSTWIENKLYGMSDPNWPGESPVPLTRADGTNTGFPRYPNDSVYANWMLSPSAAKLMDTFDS
Series [2] has as its system Ba/F3 ROS1 (CD74) S1986F-L2086F. The series is described as follows: Antiproliferation assay. It counts as cell-based. The conditions noted are these: Mus musculus, BaF3; Ba/F3 cell line. The procedure: (§2) Ba/F3 immortalized murine bone marrow–derived pro-B cells were obtained from Creative Biogene (Shirley, NY) and cultured in RPMI supplemented with 10% FBS and IL3 (0.5 ng/mL). Ba/F3 cells expressing ROS1 variants were maintained in RPMI supplemented with 10% FBS and puromycin (0.7 mg/mL). Crizotinib, ceritinib, brigatinib, repotrectinib, and lorlatinib were purchased from MedChem Express. Each compound was dissolved in DMSO and serially diluted in RPMI for cell culture experiments.
(§3) To assess the 72 h effect of drug treatment on cell proliferation, 2000 to 3000 cells were plated in replicates of three in 96-well plates. The plates were placed in an incubator at 37 °C, 5% CO2 for 72 h. Following drug treatments, the cells were incubated with the Alamar Blue Assay reagent (BioRad), 5 μL each well for 4 h at 37 °C and 5% CO2. Luminescence was measured on a multiplate reader and analyzed. […] IC50 values were determined using a nonlinear regression model with a sigmoidal dose response in GraphPad. The data were collected based on triplicate experiments, and presented as mean ± SD.
(§4) cDNA encoding CD74-ROS1 or mutant CD74–ROS1 was cloned into retroviral expression vectors (pLenti), and viruses were generated in HEK293T cells by transfecting with packaging plasmids. The resulting virus was used to infect Ba/F3 cells. After retroviral infection, Ba/F3 cells were selected by incubation with puromycin (0.7 mg/mL) for 2 weeks. For Ba/F3 cells infected by the CD74–ROS1 variants, IL3 was withdrawn from the culture medium at least 2 weeks before the experiments.

A further series concerns Ba/F3 ROS1 (CD74) G2032R. The series is described as follows: Antiproliferation assay. The conditions noted are these: Mus musculus, BaF3; Ba/F3 cell line. It counts as cell-based. On the procedure:
as §2, §3, §4

For another series, the system named is Ba/F3 ROS1 (CD74) L2086F. The series is described as follows: Antiproliferation assay. The series is classed as cell-based. The conditions noted are these: Mus musculus, BaF3; Ba/F3 cell line. The procedure:
as §2, §3, §4

The test system of series [3] is Ba/F3 ROS1 (CD74) G2032R-L2086F. The series is described as follows: Antiproliferation assay. It counts as cell-based. The conditions noted are these: Mus musculus, BaF3; Ba/F3 cell line. On the procedure: as §2, §3, §4
Series [4] has as its system Ba/F3 ROS1 (CD74) S1986F-G2032R-L2086F. The series is described as follows: Antiproliferation assay. Particulars: Mus musculus, BaF3; Ba/F3 cell line. The series is classed as cell-based. The procedure: as §2, §3, §4
Series [5] concerns Ba/F3 ROS1 (CD74) S1986F-G2032R. The series is described as follows: Antiproliferation assay. It counts as cell-based. Particulars: Mus musculus, BaF3; Ba/F3 cell line. On the procedure:
as §2, §3, §4

The next series has as its system ROS1 (G2032R). The series is described as follows: Degradation assay (Western blot in treated cells). The conditions noted are these: average of duplicate measurements. It counts as cell-based. On the procedure: as §1
Protein levels were analyzed using a WES instrument according to the WES User Guide from ProteinSimple in duplicate experiments. The samples were mixed with the fluorescent 5 master mix (ProteinSimple) and then heated at 95 °C for 5 min. Boiled samples, biotinylated protein ladder, antibody diluent, Streptavidin-HRP, primary antibodies, ProteinSimple horseradish peroxidase conjugated antirabbit or antimouse secondary antibodies, luminol-peroxide, and wash buffer were loaded into the WES plate (Wes 12–230 kDa Prefilled Plates with Split Buffer, ProteinSimple). The plates and capillary cartridges were loaded into the WES instrument, and protein separation, antibody incubation, and imaging were performed according to manufacturer’s instructions. Compass software (ProteinSimple) was used to acquire the data and to generate the virtual blot image reconstruction and chemiluminescence signal intensity electropherograms. […] Protein levels are expressed as the AUC of the peak chemiluminescence intensity. […]

Series [6] in a line: Metabolic stability in human microsomes. The conditions noted are these: human, pooled human microsomes, pH 7.4, 250 nM compound, NADPH, 37 °C. It counts as in vitro ADME.
The target of series [7] is CAMK2D (Homo sapiens, UniProt Q13557). The series is described as follows: Kinase assay. The series is classed as biochemical. The conditions noted are these: average of duplicate measurements.
Sequence of CAMK2D (Homo sapiens, UniProt Q13557) (Q13557 whole entry, species assumed): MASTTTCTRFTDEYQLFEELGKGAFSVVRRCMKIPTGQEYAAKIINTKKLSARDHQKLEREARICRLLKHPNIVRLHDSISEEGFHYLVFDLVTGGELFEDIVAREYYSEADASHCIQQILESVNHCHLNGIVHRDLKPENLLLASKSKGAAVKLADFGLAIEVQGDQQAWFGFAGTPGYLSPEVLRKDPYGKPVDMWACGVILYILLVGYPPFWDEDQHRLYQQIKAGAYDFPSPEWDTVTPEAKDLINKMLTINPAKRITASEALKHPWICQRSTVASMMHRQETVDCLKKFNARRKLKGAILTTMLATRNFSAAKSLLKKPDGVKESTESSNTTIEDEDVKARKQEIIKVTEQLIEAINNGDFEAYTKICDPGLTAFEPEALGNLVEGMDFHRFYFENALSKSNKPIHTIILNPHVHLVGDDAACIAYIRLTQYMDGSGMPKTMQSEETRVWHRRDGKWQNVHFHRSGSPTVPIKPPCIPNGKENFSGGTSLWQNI

Structures are written as SMILES. “And” between values parts separate entries of the source, which are not always exact repeats. Identical values can stand only once.

Sequence of FES (P07332 whole entry, species assumed): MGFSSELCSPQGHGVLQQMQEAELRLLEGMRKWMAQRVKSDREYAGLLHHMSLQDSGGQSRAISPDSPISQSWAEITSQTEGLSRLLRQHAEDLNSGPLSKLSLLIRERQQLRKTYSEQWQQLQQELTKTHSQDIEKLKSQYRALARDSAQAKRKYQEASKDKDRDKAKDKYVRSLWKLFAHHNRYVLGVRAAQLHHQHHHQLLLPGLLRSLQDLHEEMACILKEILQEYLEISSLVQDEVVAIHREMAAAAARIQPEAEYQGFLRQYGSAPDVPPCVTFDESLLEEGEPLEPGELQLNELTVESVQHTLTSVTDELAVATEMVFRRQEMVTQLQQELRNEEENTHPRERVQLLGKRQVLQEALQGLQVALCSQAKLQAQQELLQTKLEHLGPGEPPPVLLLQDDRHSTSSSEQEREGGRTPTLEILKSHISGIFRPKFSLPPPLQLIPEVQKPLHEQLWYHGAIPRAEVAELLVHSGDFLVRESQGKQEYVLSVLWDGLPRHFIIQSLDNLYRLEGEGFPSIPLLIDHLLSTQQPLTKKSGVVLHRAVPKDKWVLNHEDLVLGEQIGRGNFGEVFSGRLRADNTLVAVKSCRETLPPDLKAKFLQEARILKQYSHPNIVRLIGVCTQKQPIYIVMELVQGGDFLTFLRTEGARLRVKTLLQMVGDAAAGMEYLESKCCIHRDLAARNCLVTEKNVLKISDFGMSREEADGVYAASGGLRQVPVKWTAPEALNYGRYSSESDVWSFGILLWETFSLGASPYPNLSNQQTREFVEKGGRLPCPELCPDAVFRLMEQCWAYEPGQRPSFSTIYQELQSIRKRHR

As for `COc1cc(N2CCC(N3CCN(CC4CCN(c5ccc6c(c5)CN(C5CCC(=O)NC5=O)C6=O)CC4)CC3)CC2)ccc1Nc1ncc(Cl)c(Nc2ccccc2P(C)(C)=O)n1` (centres unmarked) [9o, 3-(5-(4-((4-(1-(4-((5-Chloro-4-((2-(dimethylphosphoryl)phenyl)amino)pyrimidin-2-yl)amino)-3-methoxyphenyl)piperidin-4-yl)piperazin-1-yl)methyl)piperidin-1-yl)-1-oxoisoindolin-2-yl)piperidine-2,6-dione], the 50% degradation concentration (DC50) in the series with CAMK2D [1] came to 264 nM; on FES, 320 nM; in the series with ROS1 (G2032R), 13.2 nM. The IC50 against CHEK2 is < 10 nM and 3.6 nM; against RET, 82 nM; in series [2] it was 1.9 ± 0.4 nM; in the series on Ba/F3 ROS1 (CD74) G2032R it was 7.7 ± 2 nM; with Ba/F3 ROS1 (CD74) L2086F, 6.9 ± 1.7 nM; in series [3], 66.2 ± 18.2 nM. Further, the values for the IC50 (in series [4]; in series [5]; against CAMK2D [7]) were 37.8 ± 4.4 nM, 49.5 ± 10.2 nM and 39 nM, respectively. Further, the intrinsic clearance (microsomal CLint) at 1 h, 0.25 µM in series [6] stood at 71.1 µL/min/mg. In [6] (read-out: metabolic stability in human microsomes T1/2), the half-life at 1 h, 0.25 µM is 48.8 min.
